US8895578B2, “Carboxamide, sulfonamide and amine compounds and methods for using the same” (Rigel Pharmaceuticals, Inc., priority 2007, dated 2014)

Target: AMPK
Test: AMPK activation, enzyme-linked immunosorbent assay
Type: biochemical
Details: Table 2, ELISA
Procedure: Compounds 1-54 were assayed for their ability to activate AMPK using an enzyme-linked immunosorbent assay.
Compounds 55-62 of Table 1 were assayed for their ability to activate AMPK using an enzyme-linked immunosorbent assay.
Compounds 63-66 of Table 1 were assayed for their ability to activate AMPK using an enzyme-linked immunosorbent assay.
Compounds 67-71 of Table 1 were assayed for their ability to activate AMPK using an enzyme-linked immunosorbent assay.
Compound 72 of Table 1 was assayed for its ability to activate AMPK using an enzyme-linked immunosorbent assay.

| EC50 | Compound |
| --- | --- |
| 1 to 5 µM | N#Cc1ccc(CN2CCC(NC(=O)c3ccc4[nH]c5c(c4c3)CN(C(=O)OCc3ccccc3)CC5)CC2)cc1 [Compound 1, benzyl 8-(1-(4-cyanobenzyl)piperidin-4-ylcarbamoyl)-3,4-dihydro-1H-pyrido[4,3-b]indole-2(5H)-carboxylate] |
| 10 to 50 µM | O=C(NC1CCN(Cc2ccccc2)CC1)c1ccc2[nH]c3c(c2c1)CN(C(=O)OCc1ccccc1)CC3 [Compound 2, benzyl 8-(1-(4-benzyl)piperidin-4-ylcarbamoyl)-3,4-dihydro-1H-pyrido[4,3-b]indole-2(5H)-carboxylate] |
| 1 to 5 µM | N#Cc1ccc(CN2CCC(NC(=O)c3ccc4[nH]c5c(c4c3)CN(Cc3ccccc3)CC5)CC2)cc1 [Compound 4, 2-benzyl-N-(1-(4-cyano-benzyl)piperidin-4-yl)-2,3,4,5-tetrahydro-1H-pyrido[4,3-b]indole-8-carboxamide] |
| 1 to 5 µM | O=C(NC1CCN(Cc2ccc(C(F)(F)F)cc2)CC1)c1ccc2[nH]c3c(c2c1)CN(Cc1ccccc1)CC3 [Compound 5, 2-benzyl-N-(1-(4-trifluoromethylbenzyl)piperidin-4-yl)-2,3,4,5-tetrahydro-1H-pyrido [4,3-b]indole-8-carboxamide] |
| 0.5 to 1 µM | CC(C)(C)OC(=O)N1CCC(NC(=O)c2ccc3[nH]c4c(c3c2)CN(Cc2ccc(C(F)(F)F)cc2)CC4)CC1 [Compound 6, tert-butyl 4-(2-(4-(trifluoromethyl)benzyl)-2,3,4,5-tetrahydro-1H-pyrido[4,3-b]indole-8-carboxamido)piperidine-1-carboxylate] |
| 5 to 10 µM | O=C(NC1CCN(Cc2ccncc2)CC1)c1ccc2[nH]c3c(c2c1)CN(Cc1ccccc1)CC3 [Compound 7, 2-benzyl-N-(1-(pyridin-4-ylmethyl)piperidin-4-yl)-2,3,4,5-tetrahydro-1H-pyrido[4,3-b]indole-8-carboxamide] |
| 5 to 10 µM | O=C(NC1CCN(Cc2cccnc2)CC1)c1ccc2[nH]c3c(c2c1)CN(Cc1ccc(F)cc1)CC3 [Compound 8, 2-(4-fluorobenzyl)-N-(1-(pyridin-3-ylmethyl)piperidin-4-yl)-2,3,4,5-tetrahydro-1H-pyrido [4,3-b]indole-8-carboxamide] |
| < 0.5 µM | N#Cc1ccc(CN2CCC(NC(=O)c3ccc4[nH]c5c(c4c3)CN(Cc3ccc(F)cc3)CC5)CC2)cc1 [Compound 9, N-(1-(4-cyanobenzyl)piperidin-4-yl)-2-(4-fluorobenzyl)-2,3,4,5-tetrahydro-1H-pyrido [4,3-b]indole-8-carboxamide] |
| 0.5 to 1 µM | O=C(NC1CCN(Cc2ccc(C(F)(F)F)cc2)CC1)c1ccc2[nH]c3c(c2c1)CN(Cc1ccc(F)cc1)CC3 [Compound 10, N-(1-(4-trifluoromethyl-benzyl)piperidin-4-yl)-2-(4-fluorobenzyl)-2,3,4,5-tetrahydro-1H-pyrido[4,3-b]indole-8-carboxamide] |
| < 0.5 µM | O=C(NC1CCN(Cc2cccnc2)CC1)c1ccc2[nH]c3c(c2c1)CN(Cc1ccc(C(F)(F)F)cc1)CC3 [Compound 11, N-(1-(pyridin-3-ylmethyl)piperidin-4-yl)-2-(4-(trifluoromethyl)benzyl)-2,3,4,5-tetrahydro-1H-pyrido[4,3-b]indole-8-carboxamide] |
| < 0.5 µM | N#Cc1ccc(CN2CCC(NC(=O)c3ccc4[nH]c5c(c4c3)CN(Cc3ccc(C(F)(F)F)cc3)CC5)CC2)cc1 [Compound 12, N-(1-(4-cyanobenzyl)piperidin-4-yl)-2-(4-(trifluoromethyl)benzyl)-2,3,4,5-tetrahydro-1H-pyrido[4,3-b]indole-8-carboxamide] |
| < 0.5 µM | O=C(NC1CCN(Cc2ccc(C(F)(F)F)cc2)CC1)c1ccc2[nH]c3c(c2c1)CN(Cc1ccc(C(F)(F)F)cc1)CC3 [Compound 13, N-(1-(4-trifluoromethyl-benzyl)piperidin-4-yl)-2-(4-(trifluoromethyl)benzyl)-2,3,4,5-tetrahydro-1H-pyrido[4,3-b]indole-8-carboxamide] |
| < 0.5 µM | O=C(NC1CCN(CCc2ccccc2)CC1)c1ccc2[nH]c3c(c2c1)CN(Cc1ccc(C(F)(F)F)cc1)CC3 [Compound 14, N-(1-phenethyl-piperidin-4-yl)-2-(4-(trifluoromethyl)benzyl)-2,3,4,5-tetrahydro-1H-pyrido[4,3-b]indole-8-carboxamide] |
| < 0.5 µM | O=C(NC1CCN(c2ccc(F)cc2)CC1)c1ccc2[nH]c3c(c2c1)CN(Cc1ccc(C(F)(F)F)cc1)CC3 [Compound 15, N-(1-(4-fluorophenyl)piperidin-4-yl)-2-(4-(trifluoromethyl)benzyl)-2,3,4,5-tetrahydro-1H-pyrido[4,3-b]indole-8-carboxamide] |
| < 0.5 µM | Cn1c2c(c3cc(C(=O)NC4CCN(Cc5ccc(C#N)cc5)CC4)ccc31)CN(Cc1ccc(C(F)(F)F)cc1)CC2 [Compound 16, N-(1-(4-cyanobenzyl)piperidin-4-yl)-5-methyl-2-(4-(trifluoromethyl)benzyl)-2,3,4,5-tetrahydro-1H-pyrido[4,3-b]indole-8-carboxamide] |
| 0.5 to 1 µM | Cn1c2c(c3cc(C(=O)NC4CCN(Cc5ccc(C(F)(F)F)cc5)CC4)ccc31)CN(Cc1ccc(C(F)(F)F)cc1)CC2 [Compound 17, N-(1-(4-trifluoromethyl-benzyl)piperidin-4-yl)-5-methyl-2-(4-(trifluoro-methyl)benzyl)-2,3,4,5-tetrahydro-1H-pyrido [4,3-b]indole-8-carboxamide] |
| 1 to 5 µM | Cn1c2c(c3cc(C(=O)NC4CCN(Cc5cccnc5)CC4)ccc31)CN(Cc1ccc(C(F)(F)F)cc1)CC2 [Compound 18, 5-methyl-N-(1-(pyridin-3-ylmethyl)piperidin-4-yl)-2-(4-(trifluoromethyl)benzyl)-2,3,4,5-tetrahydro-1H-pyrido[4,3-b]indole-8-carboxamide] |
| > 100 µM | O=C(NC1CCN(Cc2ccccc2)CC1)c1ccc2[nH]c3c(c2c1)CN(S(=O)(=O)c1ccc(C(F)(F)F)cc1)CC3 [Compound 19, N-(1-benzylpiperidin-4-yl)-2-(4-(trifluoromethyl)phenylsulfonyl)-2,3,4,5-tetrahydro-1H-pyrido [4,3-b]indole-8-carboxamide] |
| 1 to 5 µM | CC(=O)n1c2c(c3cc(C(=O)NC4CCN(Cc5cccnc5)CC4)ccc31)CN(Cc1ccc(C(F)(F)F)cc1)CC2 [Compound 20, 5-acetyl-N-(1-(pyridin-3-ylmethyl)piperidin-4-yl)-2-(4-(trifluoromethyl)benzyl)-2,3,4,5-tetrahydro-1H-pyrido[4,3-b]indole-8-carboxamide] |
| 0.5 to 1 µM | N#Cc1ccc(S(=O)(=O)N2CCC(NC(=O)c3ccc4[nH]c5c(c4c3)CN(Cc3ccc(C(F)(F)F)cc3)CC5)CC2)cc1 [Compound 21, N-(1-(4-cyanophenyl-sulfonyl)piperidin-4-yl)-2-(4-(trifluoromethyl)benzyl)-2,3,4,5-tetrahydro-1H-pyrido[4,3-b]indole-8-carboxamide] |
| 0.5 to 1 µM | O=C(NC1CCN(S(=O)(=O)c2cccnc2)CC1)c1ccc2[nH]c3c(c2c1)CN(Cc1ccc(C(F)(F)F)cc1)CC3 [Compound 22] |
| 1 to 5 µM | O=C(NC1CCN(S(=O)(=O)c2ccc(C(F)(F)F)cc2)CC1)c1ccc2[nH]c3c(c2c1)CN(Cc1ccc(C(F)(F)F)cc1)CC3 [Compound 23, 2-(4-(trifluoromethyl)benzyl)-N-(1-(4-(trifluoro-methyl)phenylsulfonyl)piperidin-4-yl)-2,3,4,5-tetrahydro-1H-pyrido[4,3-b]indole-8-carboxamide] |
| 1 to 5 µM | N#Cc1ccc(CN2CCC(NC(=O)c3ccc4[nH]c5c(c4c3)CN(S(=O)(=O)c3ccc(C(F)(F)F)cc3)CC5)CC2)cc1 [Compound 24, N-(1-(4-cyanobenzyl)piperidin-4-yl)-2-(4-(trifluoromethyl)phenyl-sulfonyl)-2,3,4,5-tetrahydro-1H-pyrido[4,3-b]indole-8-carboxamide] |
| 10 to 50 µM | N#Cc1ccc(CN2CCC(NC(=O)c3ccc4[nH]c5c(c4c3)CN(S(=O)(=O)c3ccc(C#N)cc3)CC5)CC2)cc1 [Compound 25, N-(1-(4-cyanobenzyl)piperidin-4-yl)-2-(4-cyanophenylsulfonyl)-2,3,4,5-tetrahydro-1H-pyrido[4,3-b]indole-8-carboxamide] |
| 10 to 50 µM | N#Cc1ccc(CN2CCC(NC(=O)c3ccc4[nH]c5c(c4c3)CN(S(=O)(=O)c3cccnc3)CC5)CC2)cc1 [Compound 26, N-(1-(4-cyanobenzyl)piperidin-4-yl)-2-(pyridin-3-ylsulfonyl)-2,3,4,5-tetrahydro-1H-pyrido [4,3-b]indole-8-carboxamide] |
| 1 to 5 µM | N#Cc1ccc(NC(=O)N2CCC(NC(=O)c3ccc4[nH]c5c(c4c3)CN(Cc3ccc(C(F)(F)F)cc3)CC5)CC2)cc1 [Compound 27, N-(1-(4-cyanophenyl-carbamoyl)piperidin-4-yl)-2-(4-(trifluoro-methyl)benzyl)-2,3,4,5-tetrahydro-1H-pyrido [4,3-b]indole-8-carboxamide] |
| 1 to 5 µM | O=C(NC1CCN(S(=O)(=O)c2ccc(F)cc2)CC1)c1ccc2[nH]c3c(c2c1)CN(Cc1ccc(C(F)(F)F)cc1)CC3 [Compound 28, N-(1-(4-fluorophenyl-sulfonyl)piperidin-4-yl)-2-(4-(trifluoromethyl)benzyl)-2,3,4,5-tetrahydro-1H-pyrido[4,3-b]indole-8-carboxamide] |
| 1 to 5 µM | N#Cc1cccc(S(=O)(=O)N2CCC(NC(=O)c3ccc4[nH]c5c(c4c3)CN(Cc3ccc(C(F)(F)F)cc3)CC5)CC2)c1 [Compound 29, N-(1-(3-cyanophenyl-sulfonyl)piperidin-4-yl)-2-(4-(trifluoromethyl)benzyl)-2,3,4,5-tetrahydro-1H-pyrido[4,3-b]indole-8-carboxamide] |

| Compound | EC50 |
| --- | --- |
| CC(C)(C)OC(=O)N1CCC(NC(=O)c2ccc3[nH]c4c(c3c2)CN(C(=O)OCc2ccccc2)CC4)CC1 [Compound 3, benzyl 8-(1-(tert-butoxy-carbonyl)piperidin-4-ylcarbamoyl)-3,4-dihydro-1H-pyrido[4,3-b]indole-2(5H)-carboxylate] | 10 to 50 µM |
